Data as given in US20230382926A1, “COMPOUNDS AND USES THEREOF” (The University of The West Indies, priority 2022, published 2023).

Legend:
P. aeruginosa = assay: Rescue concentration of substituted phenyl azaindole derivatives; type: cell-based; conditions: Imipenem fixed at 1 μg/mL
In short: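 Modified checkerboard MIC: fixed CLSI susceptible-breakpoint antibiotic concentration plus twofold dilution series of SP-azaBIM, 10^6 CFU/ml in ca-MHB, 35° C, 24 h aerobic. Only antibiotics to which the strain was resistant were tested. Rescue concentration = lowest compound concentration giving 99.99% growth reduction (visual) at breakpoint.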

[1] = system: clinical isolate CR-K. pneumoniae 7225; assay: Non-lethal mouse peritonitis infection model; type: in vivo, Swiss albino mice
Method: For both lethal and non-lethal infection models involving Carbapenem resistant Klebsiella pneumoniae suitable strains, number of mice per treatment and bacterial infection dose were predetermined in preliminary experiments.
Each mouse (n=6 per group) received an intraperitoneal (i.p.) injection of 200 μl of bacterial suspension (1×10^4 CFU ml^−1).
Mice were then treated once daily for two subsequent days (i.e. 24 h and 48 h). Twenty-four-hours after the last dose, the mice were euthanized via cervical dislocation and their spleen and liver excised, homogenized in PBS and plated onto Hichrome™ Klebsiella selective media (HiMedia Laboratories, PA, USA). The plates were incubated at 35° C. for 24 h and bacterial counts were determined (CFU g^−1 organ).
Based on the significance of the SP-azaBIMs to restore the in vitro efficacy of antibiotics against high priority pathogenic bacteria, we examined if these compounds could provide proof of concept that they could be used to treat in vivo infections. To test this, we performed both non-lethal and lethal intraperitoneal infection models in Swiss Albino mice.
There was a significant reduction in the K. pneumoniae load in both the liver (FIG. 2a) and spleen (FIG. 2b) for the combination therapies compared to the respective antibiotic monotherapies. […] Colistin (Col) (10 mg kg^−1) was used as the positive control in this case. K. pneumoniae load in the liver (FIG. 2a) and spleen (FIG. 2b) was determined by selective plating on Hichrome™ Klebsiella selective media. Data bars represent the average (n=6 mice per treatment group)±standard error.

[2] = system: Klebsiella pneumoniae ATCC BAA-2814; assay: Gene expression analysis by quantitative reverse transcription PCR; type: cell-based
Method: Cell treatment and RNA extraction: Overnight cultures of Klebsiella pneumoniae ATCC BAA-2814 grown on Brain Heart Infusion (BHI) agar was harvested and washed in phosphate buffer saline (pH=7.4) twice. Fresh Brain Heart infusion broth was inoculated with K. pneumoniae cells to a final concentration of 10^6 CFU mL^−1. Cells were subjected to the following treatments: T0—Vehicle only (ddH2O); T1—Meropenem only (0.25 MIC; 8 μg mL^−1); T2—Meropenem 0.25 MIC+SP-azaBIM 136 (2 ug mL^−1). Treated cells were incubated at 35° C. at 200 rpm and total RNA was extracted at 1 h and 6 h post exposure using TRIzol reagent (Life Technologies) following the manufacturer's protocol before eluting in DEPC treated water. Three biological replicates were included for each treatment.
Quantitative reverse transcription PCR analysis: Reverse transcription was done using the GoScript Reverse Transcriptase Kit (Promega, USA) employing a mixture (1:1) of random and oligo dT primers with 2 μg RNA as starting material in a 20-μL reaction following the manufacturers protocols. cDNA samples were then quantified by real-time PCR using specific primers in an Applied Biosystems 7500 Fast Real-Time PCR system (Life Technologies Corp., USA) and the data analysed using the 2^(−ΔΔct) method. Thermal cycling was performed using a two-step PCR amplification standard procedure at 95° C. for 30 s and 35 cycles of 95° C. for 5 s and 60° C. for 30 s. The expression levels of all the genes were normalized using the K. pneumoniae RNA polymerase sigma factor (rpoD) gene as an internal standard.
To examine this hypothesis, we investigated the expression of genes in K. pneumoniae ATCC […] that were affected by SP-azaBIM 136 treatment. Expression of key transcription factors and their associated downstream resistance and pathogenicity genes was examined in Klebsiella pneumoniae cells treated with meropenem and a combination of meropenem and SP-azaBIM 136. Cells in the exponential phase were either treated with 0.25 MIC (8 μg mL^−1) of Meropenem only or a combination of 0.25 MIC meropenem and 10 μg mL^−1 of SP-azaBIM 136. Untreated cells served as the control for baseline gene expression. Cells were exposed to each agent for 1 h and 6 h, after which the total RNA was extracted, and cDNA synthesis performed. […] The addition of SP-azaBIM 136 was theorized to revert the expression of the relevant genes closer to baseline expression levels.

[3] = co-administered with Meropenem 10 mg kg^−1, SP-azaBIM 136 10 mg kg^−1 s.c. at 1, 24, 48 h, versus Meropenem only
[4] = combination with Ciprofloxacin 10 mg kg^−1, SP-azaBIM 136 10 mg kg^−1 s.c., compared to Ciprofloxacin only
[5] = Meropenem 0.25 MIC + SP-azaBIM 136, 6 h
[6] = addition of SP-azaBIM 136 to meropenem, versus meropenem only

For `Brc1ccc(C(c2c[nH]c3cnccc23)c2c[nH]c3cnccc23)cc1` [SP-6azaBIM 125, 3,3′-((4-bromophenyl)methylene)bis(1H-pyrrolo[2,3-c]pyridine)], the “Rescue concentration, P. aeruginosa Imipenem (1 μg/mL)” value (P. aeruginosa) was 32 µg/mL.
`Oc1ccc(C(c2c[nH]c3cnccc23)c2c[nH]c3cnccc23)cc1` [SP-6azaBIM 136, 4-(bis(1H-pyrrolo[2,3-c]pyridin-3-yl)methyl)phenol] was tested, and the “K. pneumoniae load in the organs” value ([1]; SP-azaBIM 136 on its own, 10 mg kg^−1) was “not able to reduce K. pneumoniae load in the organs”, the “Reduction of bacterial cells in the liver” value [1, 3] was 41 fold and the “Reduction of bacterial cells in the spleen” value [1, 3] was 14 fold. For the same compound, the “Reduction of bacterial cells in the liver” value [1, 4] was ~53 fold, the “Reduction of bacterial cells in the spleen” value [1, 4] was ~12 fold and the “ROB gene expression relative to baseline levels” value ([2]; Meropenem 0.25 MIC + SP-azaBIM 136 (2 ug mL^−1, 10 μg mL^−1 elsewhere in the source), 1 h) was 0.35 times that of baseline levels. The “soxS gene expression compared to untreated cells” value ([2]; Meropenem 0.25 MIC + SP-azaBIM 136, 1 h) was 0.28 fold, the “ROB gene expression relative to baseline levels” value [2, 5] was 1.4 fold and the “soxS gene expression compared to untreated cells” value [2, 5] was 0.76 fold. The “Expression of extended spectrum beta-lactamases and carbapenemase gene KPC” value ([2]; Meropenem + SP-azaBIM 136) was “significantly suppressed”, the TEM-1 gene expression ([2]; Meropenem + SP-azaBIM 136) was “no significant variation in expression” and the “marA regulatory gene expression response” value ([2]; Meropenem + SP-azaBIM 136) was “not as profound as the other two genes”. For the same compound, the “Virulence gene expression (fimH, entB, iutA, rpmA)” value ([2]; SP-azaBIM 136 added to meropenem, 1 h and 6 h) was “expression decreased significantly”, the “Reduction in mexA gene expression” value [2, 6] was 17 fold and the “Reduction in norB gene expression” value [2, 6] was 4.5 fold. The “Rescue concentration, P. aeruginosa Imipenem (1 μg/mL)” value (P. aeruginosa) was 256 µg/mL.
